Data: ChEMBL document CHEMBL4828717, “Synthetic cajaninstilbene acid derivatives eradicate methicillin-resistant Staphylococcus aureus persisters and biofilms” (Eur J Med Chem, 2021)
The source made the active and inactive calls. The calls are words filed in the database; no cut-off is given here.

Columns and labels:
Staphylococcus aureus [1] = assay: Antibacterial activity against methicillin resistant Staphylococcus aureus ATCC 43300 persisters assessed as reduction in colony formation at 40 ug/ml incubated for 8 hrs by colony counting method; type: functional, organism-based; conditions: dose 40.0 µg/ml
[2] = Toxicity in BALB/c mouse infected with methicillin-resistant Staphylococcus aureus ATCC 43300 assessed as damage in spleen at 50 to 100 mg/kg, sc administered every 24 hrs for 4 days by H&E staining based light microscopic analysis; type: organism-based; conditions: in vivo, dose 50-100 mg/kg
[3] = Toxicity in BALB/c mouse infected with methicillin-resistant Staphylococcus aureus ATCC 43300 assessed as damage in heart at 50 to 100 mg/kg, sc administered every 24 hrs for 4 days by H&E staining based light microscopic analysis; type: organism-based; conditions: in vivo, dose 50-100 mg/kg
[4] = Toxicity in BALB/c mouse infected with methicillin-resistant Staphylococcus aureus ATCC 43300 assessed as damage in lung at 50 to 100 mg/kg, sc administered every 24 hrs for 4 days by H&E staining based light microscopic analysis; type: organism-based; conditions: in vivo, dose 50-100 mg/kg
[5] = Toxicity in BALB/c mouse infected with methicillin-resistant Staphylococcus aureus ATCC 43300 assessed as damage in liver at 50 to 100 mg/kg, sc administered every 24 hrs for 4 days by H&E staining based light microscopic analysis; type: organism-based; conditions: in vivo, dose 50-100 mg/kg
[6] = Toxicity in BALB/c mouse infected with methicillin-resistant Staphylococcus aureus ATCC 43300 assessed as damage in kidney at 50 to 100 mg/kg, sc administered every 24 hrs for 4 days by H&E staining based light microscopic analysis; type: organism-based; conditions: in vivo, dose 50-100 mg/kg
Staphylococcus aureus [7] = assay: Antibacterial activity against Staphylococcus aureus ATCC 25923 assessed as reduction in microbial growth after 16 to 18 hrs by microbroth dilution method; type: functional; conditions: time 16-18 hrs
Staphylococcus aureus [8] = assay: Antibacterial activity against methicillin resistant Staphylococcus aureus ATCC 43300 assessed as reduction in microbial growth after 16 to 18 hrs by microbroth dilution method; type: functional; conditions: time 16-18 hrs
Staphylococcus aureus [9] = assay: Antibacterial activity against methicillin resistant Staphylococcus aureus ATCC 62202 assessed as reduction in microbial growth after 16 to 18 hrs by microbroth dilution method; type: functional; conditions: time 16-18 hrs
Staphylococcus aureus [10] = assay: Antibacterial activity against methicillin resistant Staphylococcus aureus ATCC 52056 assessed as reduction in microbial growth after 16 to 18 hrs by microbroth dilution method; type: functional; conditions: time 16-18 hrs
Staphylococcus aureus [11] = assay: Antibacterial activity against methicillin resistant Staphylococcus aureus ATCC513045 assessed as reduction in microbial growth after 16 to 18 hrs by microbroth dilution method; type: functional; conditions: time 16-18 hrs
Staphylococcus aureus [12] = assay: Antibacterial activity against methicillin resistant Staphylococcus aureus ATCC515992 assessed as reduction in microbial growth after 16 to 18 hrs by microbroth dilution method; type: functional; conditions: time 16-18 hrs
Staphylococcus aureus [13] = assay: Antibacterial activity against methicillin resistant Staphylococcus aureus ATCC49800 assessed as reduction in microbial growth after 16 to 18 hrs by microbroth dilution method; type: functional; conditions: time 16-18 hrs
Staphylococcus aureus [14] = assay: Antibacterial activity against methicillin resistant Staphylococcus aureus ATCC49025 assessed as reduction in microbial growth after 16 to 18 hrs by microbroth dilution method; type: functional; conditions: time 16-18 hrs
Staphylococcus aureus [15] = assay: Antibacterial activity against methicillin resistant Staphylococcus aureus ATCC48073 assessed as reduction in microbial growth after 16 to 18 hrs by microbroth dilution method; type: functional; conditions: time 16-18 hrs
Staphylococcus aureus [16] = assay: Antibacterial activity against methicillin resistant Staphylococcus aureus ATCC48966 assessed as reduction in microbial growth after 16 to 18 hrs by microbroth dilution method; type: functional; conditions: time 16-18 hrs
Staphylococcus aureus [17] = assay: Antibacterial activity against methicillin resistant Staphylococcus aureus ATCC49008 assessed as reduction in microbial growth after 16 to 18 hrs by microbroth dilution method; type: functional; conditions: time 16-18 hrs
Staphylococcus aureus [18] = assay: Antibacterial activity against methicillin resistant Staphylococcus aureus ATCC48706 assessed as reduction in microbial growth after 16 to 18 hrs by microbroth dilution method; type: functional; conditions: time 16-18 hrs
Escherichia coli = assay: Antibacterial activity against Escherichia coli ATCC25922 assessed as reduction in microbial growth after 16 to 18 hrs by microbroth dilution method; type: functional; conditions: ATCC 25922, time 16-18 hrs
Pseudomonas aeruginosa = assay: Antibacterial activity against Pseudomonas aeruginosa ATCC27853 assessed as reduction in microbial growth after 16 to 18 hrs by microbroth dilution method; type: functional; conditions: time 16-18 hrs
Enterococcus faecalis = assay: Antibacterial activity against Enterococcus faecalis ATCC29212 assessed as reduction in microbial growth after 16 to 18 hrs by microbroth dilution method; type: functional; conditions: ATCC 29212, time 16-18 hrs
[19] = Cytotoxicity against mouse RAW264.7 cells assessed as cell viability at 10 ug/ml measured after 24 hrs by MTT assay; type: cell-based; conditions: RAW264.7 cells, at 10 µg/mL, read-out: Activity
L02 = assay: Cytotoxicity against human L02 cells assessed as cell viability at 10 ug/ml measured after 24 hrs by MTT assay; type: cell-based; conditions: l02, 24 h, dose 10 µg/ml

## CO[C@H]1/C=C/O[C@@]2(C)Oc3c(C)c(O)c4c(O)c(c(/C=N/N5CCN(C)CC5)c(O)c4c3C2=O)NC(=O)/C(C)=C\C=C\[C@H](C)[C@H](O)[C@@H](C)[C@@H](O)[C@@H](C)[C@H](OC(C)=O)[C@@H]1C
Staphylococcus aureus [1]
  Activity: inactive

## CCCCCCCCCC(=O)N[C@@H](Cc1c[nH]c2ccccc12)C(=O)N[C@H](CC(N)=O)C(=O)N[C@@H](CC(=O)O)C(=O)N[C@@H]1C(=O)NCC(=O)N[C@@H](CCCN)C(=O)N[C@@H](CC(=O)O)C(=O)N[C@H](C)C(=O)N[C@@H](CC(=O)O)C(=O)NCC(=O)N[C@H](CO)C(=O)N[C@@H]([C@H](C)CC(=O)O)C(=O)N[C@@H](CC(=O)c2ccccc2N)C(=O)O[C@@H]1C
Staphylococcus aureus [1]
  Activity: inactive

## CN[C@H](CC(C)C)C(=O)N[C@H]1C(=O)N[C@@H](CC(N)=O)C(=O)N[C@H]2C(=O)N[C@H]3C(=O)N[C@H](C(=O)N[C@H](C(=O)O)c4cc(O)cc(O)c4-c4cc3ccc4O)[C@H](O)c3ccc(c(Cl)c3)Oc3cc2cc(c3O[C@@H]2O[C@H](CO)[C@@H](O)[C@H](O)[C@H]2O[C@H]2C[C@](C)(N)[C@H](O)[C@H](C)O2)Oc2ccc(cc2Cl)[C@H]1O [VANCOMYCIN]
[2]
  Activity: Non-Toxic
[3]
  Activity: Non-Toxic
[4]
  Activity: Non-Toxic
[5]
  Activity: Non-Toxic
[6]
  Activity: Non-Toxic

## O=C(O)c1cn(C2CC2)c2cc(N3CCNCC3)c(F)cc2c1=O
Staphylococcus aureus [1]
  Activity: inactive

## CC(C)=CCc1c(OC2CCOCC2)cc(/C=C/c2ccc(F)cc2)c(C(=O)O)c1O
Staphylococcus aureus [7]
  MIC: 16 µg/mL
Staphylococcus aureus [8]
  MIC: 1 µg/mL
Staphylococcus aureus [9]
  MIC: 32 µg/mL
Staphylococcus aureus [10]
  MIC: 8 µg/mL
Staphylococcus aureus [11]
  MIC: 16 µg/mL
Staphylococcus aureus [12]
  MIC: 32 µg/mL
Staphylococcus aureus [13]
  MIC: 16 µg/mL
Staphylococcus aureus [14]
  MIC: 16 µg/mL
Staphylococcus aureus [15]
  MIC: 16 µg/mL
Staphylococcus aureus [16]
  MIC: 16 µg/mL
Staphylococcus aureus [17]
  MIC: 16 µg/mL
Staphylococcus aureus [18]
  MIC: 16 µg/mL
Escherichia coli
  MIC: > 32 µg/mL
Pseudomonas aeruginosa
  MIC: > 32 µg/mL
Enterococcus faecalis
  MIC: > 32 µg/mL
[19]
  viability at 24 h, 10 ug/ml: > 60%
L02
  Activity: Toxic
